Results reported in ChEMBL document CHEMBL2163222 (J Med Chem, 2012).
Calls of active or inactive are those of the source. The calls are words filed in the database; no cut-off is given here.

Experiments:
OVCAR-3 = assay: Growth inhibition of human OVCAR3 cells at 10 uM by NCI-60 cell inhibition assay; assay type: functional; conditions: read-out: GI
OVCAR-4 = assay: Growth inhibition of human OVCAR4 cells at 10 uM by NCI-60 cell inhibition assay; assay type: functional; conditions: read-out: GI
IGROV-1 = assay: Growth inhibition of human IGROV1 cells at 10 uM by NCI-60 cell inhibition assay; assay type: functional; conditions: read-out: GI
UACC-257 = assay: Growth inhibition of human UACC257 cells at 10 uM by NCI-60 cell inhibition assay; assay type: functional; conditions: read-out: GI
UACC-62 = assay: Growth inhibition of human UACC62 cells at 10 uM by NCI-60 cell inhibition assay; assay type: functional; conditions: read-out: GI
SK-MEL-5 = assay: Growth inhibition of human SK-MEL-5 cells at 10 uM by NCI-60 cell inhibition assay; assay type: functional; conditions: read-out: GI
MDA-MB-435 = assay: Growth inhibition of human MDA-MB-435 cells at 10 uM by NCI-60 cell inhibition assay; assay type: functional; conditions: read-out: GI
M14 = assay: Growth inhibition of human M14 cells at 10 uM by NCI-60 cell inhibition assay; assay type: functional; conditions: read-out: GI
LOX IMVI = assay: Growth inhibition of human LOXIMVI cells at 10 uM by NCI-60 cell inhibition assay; assay type: functional; conditions: read-out: GI
SF-268 = assay: Growth inhibition of human SF268 cells at 10 uM by NCI-60 cell inhibition assay; assay type: functional; conditions: read-out: GI
SF-295 = assay: Growth inhibition of human SF295 cells at 10 uM by NCI-60 cell inhibition assay; assay type: functional; conditions: read-out: GI
KM12 = assay: Growth inhibition of human KM12 cells at 10 uM by NCI-60 cell inhibition assay; assay type: functional; conditions: read-out: GI
SW-620 = assay: Growth inhibition of human SW620 cells at 10 uM by NCI-60 cell inhibition assay; assay type: functional; conditions: read-out: GI
HCT-15 = assay: Growth inhibition of human HCT15 cells at 10 uM by NCI-60 cell inhibition assay; assay type: functional; conditions: read-out: GI
HT-29 = assay: Growth inhibition of human HT-29 cells at 10 uM by NCI-60 cell inhibition assay; assay type: functional; conditions: read-out: GI
COLO 205 = assay: Growth inhibition of human COLO205 cells at 10 uM by NCI-60 cell inhibition assay; assay type: functional; conditions: read-out: GI
HCC 2998 = assay: Growth inhibition of human HCC2998 cells at 10 uM by NCI-60 cell inhibition assay; assay type: functional; conditions: read-out: GI
NCI-H522 = assay: Growth inhibition of human NCI-H522 cells at 10 uM by NCI-60 cell inhibition assay; assay type: functional; conditions: read-out: GI
NCI-H322M = assay: Growth inhibition of human NCI-H322M cells at 10 uM by NCI-60 cell inhibition assay; assay type: functional; conditions: read-out: GI
NCI-H23 = assay: Growth inhibition of human NCI-H23 cells at 10 uM by NCI-60 cell inhibition assay; assay type: functional; conditions: read-out: GI
NCI-H226 = assay: Growth inhibition of human NCI-H226 cells at 10 uM by NCI-60 cell inhibition assay; assay type: functional; conditions: read-out: GI
HOP-62 = assay: Growth inhibition of human HOP62 cells at 10 uM by NCI-60 cell inhibition assay; assay type: functional; conditions: read-out: GI
HOP-92 = assay: Growth inhibition of human HOP92 cells at 10 uM by NCI-60 cell inhibition assay; assay type: functional; conditions: read-out: GI
A549 = assay: Growth inhibition of human A549/ATCC cells at 10 uM by NCI-60 cell inhibition assay; assay type: functional; conditions: read-out: GI
EKVX = assay: Growth inhibition of human EKVX cells at 10 uM by NCI-60 cell inhibition assay; assay type: functional; conditions: read-out: GI
[1] = Growth inhibition of human […] cells at 10 uM by NCI-60 cell inhibition assay; assay type: functional; conditions: read-out: GI
MOLT-4 = assay: Growth inhibition of human MOLT4 cells at 10 uM by NCI-60 cell inhibition assay; assay type: functional; conditions: read-out: GI
HL-60(TB) = assay: Growth inhibition of human HL-60(TB) cells at 10 uM by NCI-60 cell inhibition assay; assay type: functional; conditions: read-out: GI
CCRF-CEM = assay: Growth inhibition of human CCRF-CEM cells at 10 uM by NCI-60 cell inhibition assay; assay type: functional; conditions: read-out: GI
[2] = Stability in cell culture medium without serum assessed as compound recovery after 72 hrs; assay type: physicochemical; conditions: read-out: Stability
[3] = Inhibition of eIF2 protein expression in human U373 cells at 0.5 uM after 4 hrs by Western blotting method; assay type: functional, cell-based; conditions: U-373MG ATCC
[4] = Inhibition of eIF2 protein expression in human Hs683 cells at 0.5 uM after 4 hrs by Western blotting method; assay type: functional, cell-based; conditions: Hs 683
Hs 683 [5] = assay: Inhibition of eIF2 activity in human Hs683 cells at 0.5 uM after 4 hrs by Western blotting method; assay type: functional, cell-based
Mus musculus = species on record: Mus musculus; assay: Toxicity in mouse assessed as drug tolerance; assay type: organism-based; conditions: in vivo
[6] = Cytostatic activity in human U373 cells at 0.4 uM assessed global growth ratio after 72 hrs by quantitative video microscopy; assay type: functional, U-373MG ATCC
OE33 = assay: Growth inhibition of human OE33 cells after 3 days by MTT assay; assay type: functional, cell-based; conditions: OE33, 72 h
T47D = assay: Growth inhibition of human T47D cells at 10 uM by NCI-60 cell inhibition assay; assay type: functional; conditions: read-out: GI
BT-549 = assay: Growth inhibition of human BT549 cells at 10 uM by NCI-60 cell inhibition assay; assay type: functional; conditions: read-out: GI
MDA-MB-231 = assay: Growth inhibition of human MDA-MB-231 cells at 10 uM by NCI-60 cell inhibition assay; assay type: functional; conditions: read-out: GI
[7] = Growth inhibition of human Hs 578T cells at 10 uM by NCI-60 cell inhibition assay; assay type: functional; conditions: read-out: GI
MCF7 = assay: Growth inhibition of human MCF7 cells at 10 uM by NCI-60 cell inhibition assay; assay type: functional; conditions: read-out: GI
DU-145 = assay: Growth inhibition of human DU145 cells at 10 uM by NCI-60 cell inhibition assay; assay type: functional; conditions: read-out: GI
UO-31 = assay: Growth inhibition of human UO31 cells at 10 uM by NCI-60 cell inhibition assay; assay type: functional; conditions: read-out: GI
SN12C = assay: Growth inhibition of human SN12C cells at 10 uM by NCI-60 cell inhibition assay; assay type: functional; conditions: read-out: GI
CAKI-1 = assay: Growth inhibition of human Caki1 cells at 10 uM by NCI-60 cell inhibition assay; assay type: functional; conditions: read-out: GI
ACHN = assay: Growth inhibition of human ACHN cells at 10 uM by NCI-60 cell inhibition assay; assay type: functional; conditions: read-out: GI
786-0 = assay: Growth inhibition of human 786-0 cells at 10 uM by NCI-60 cell inhibition assay; assay type: functional; conditions: read-out: GI
SK-OV-3 = assay: Growth inhibition of human SKOV3 cells at 10 uM by NCI-60 cell inhibition assay; assay type: functional; conditions: read-out: GI
OVCAR-5 = assay: Growth inhibition of human OVCAR5 cells at 10 uM by NCI-60 cell inhibition assay; assay type: functional; conditions: read-out: GI
Hs 683 [8] = assay: cells; conditions: Homo sapiens, Hs 683, 72 h
cells = conditions: Homo sapiens, U373 MG, 72 h

Cc1c2c(cc[n+]1Cc1ccccc1)c1ccc(OCC3CCCCC3)cc1n2CC1CCCCC1.[Br-]
inhibition of growth at 10 µM (OVCAR-3): -100%
inhibition of growth at 10 µM (OVCAR-4): -94.3%
inhibition of growth at 10 µM (IGROV-1): -70.6%
inhibition of growth at 10 µM (UACC-257): -92.4%
inhibition of growth at 10 µM (UACC-62): -94%
inhibition of growth at 10 µM (SK-MEL-5): -100%
inhibition of growth at 10 µM (MDA-MB-435): -84.9%
inhibition of growth at 10 µM (M14): -84.6%
inhibition of growth at 10 µM (LOX IMVI): -95.6%
inhibition of growth at 10 µM (SF-268): -98.7%
inhibition of growth at 10 µM (SF-295): -92.8%
inhibition of growth at 10 µM (KM12): -99.9%
inhibition of growth at 10 µM (SW-620): -96.6%
inhibition of growth at 10 µM (HCT-15): -81.7%
inhibition of growth at 10 µM (HT-29): -79%
inhibition of growth at 10 µM (COLO 205): -95.2%
inhibition of growth at 10 µM (HCC 2998): -93.2%
inhibition of growth at 10 µM (NCI-H522): -84.5%
inhibition of growth at 10 µM (NCI-H322M): -83.2%
inhibition of growth at 10 µM (NCI-H23): -76.7%
inhibition of growth at 10 µM (NCI-H226): -89.1%
inhibition of growth at 10 µM (HOP-62): -95%
inhibition of growth at 10 µM (HOP-92): -85.6%
inhibition of growth at 10 µM (A549): -93.1%
inhibition of growth at 10 µM (EKVX): -75.5%
inhibition of growth at 10 µM [1]: -45.2%
inhibition of growth at 10 µM (MOLT-4): -64.5%
inhibition of growth at 10 µM (HL-60(TB)): -53.4%
inhibition of growth at 10 µM (CCRF-CEM): -36.2%
remaining at 72 h [2]: > 95%
inhibition [3]: inactive
inhibition [4]: inactive
inhibition (Hs 683 [5]): inactive
Activity (Mus musculus): Toxic
Ratio [6]: 0.25
IC50 (OE33): 370 nM
inhibition of growth at 10 µM (T47D): -74.1%
inhibition of growth at 10 µM (BT-549): -91%
inhibition of growth at 10 µM (MDA-MB-231): -92%
inhibition of growth at 10 µM [7]: -36.2%
inhibition of growth at 10 µM (MCF7): -92.3%
inhibition of growth at 10 µM (DU-145): -100%
inhibition of growth at 10 µM (UO-31): -93.1%
inhibition of growth at 10 µM (SN12C): -91.9%
inhibition of growth at 10 µM (CAKI-1): -92.5%
inhibition of growth at 10 µM (ACHN): -100%
inhibition of growth at 10 µM (786-0): -91.3%
inhibition of growth at 10 µM (SK-OV-3): -53.4%
inhibition of growth at 10 µM (OVCAR-5): -95.5%
IC50 (Hs 683 [8]): 380 nM
IC50 (cells): 370 nM

Cc1c2c(cc[n+]1Cc1ccccc1)c1ccc(OCc3ccccc3)cc1n2Cc1ccccc1.[Br-]
inhibition of growth at 10 µM (OVCAR-3): -97.1%
inhibition of growth at 10 µM (OVCAR-4): -3.79%
inhibition of growth at 10 µM (IGROV-1): -65.1%
inhibition of growth at 10 µM (UACC-257): -0.65%
inhibition of growth at 10 µM (UACC-62): -87.1%
inhibition of growth at 10 µM (SK-MEL-5): -99.4%
inhibition of growth at 10 µM (MDA-MB-435): -93.8%
inhibition of growth at 10 µM (M14): -87.9%
inhibition of growth at 10 µM (LOX IMVI): -93.2%
inhibition of growth at 10 µM (SF-268): -90.4%
inhibition of growth at 10 µM (SF-295): -69.2%
inhibition of growth at 10 µM (KM12): -98.4%
inhibition of growth at 10 µM (SW-620): -88.1%
inhibition of growth at 10 µM (HCT-15): 39.2%
inhibition of growth at 10 µM (HT-29): -48.6%
inhibition of growth at 10 µM (COLO 205): -82.3%
inhibition of growth at 10 µM (HCC 2998): -81.8%
inhibition of growth at 10 µM (NCI-H522): -47.1%
inhibition of growth at 10 µM (NCI-H322M): -26.9%
inhibition of growth at 10 µM (NCI-H23): -12.2%
inhibition of growth at 10 µM (NCI-H226): -12%
inhibition of growth at 10 µM (HOP-62): -70.9%
inhibition of growth at 10 µM (HOP-92): -67.8%
inhibition of growth at 10 µM (A549): 4.01%
inhibition of growth at 10 µM (EKVX): -28.8%
inhibition of growth at 10 µM [1]: -21.6%
inhibition of growth at 10 µM (MOLT-4): -51%
inhibition of growth at 10 µM (HL-60(TB)): -54.1%
inhibition of growth at 10 µM (CCRF-CEM): -16.2%
remaining at 72 h [2]: > 95%
inhibition [3]: Active
inhibition [4]: Active
inhibition (Hs 683 [5]): Active
Activity (Mus musculus): Toxic
Ratio [6]: 0.4
IC50 (OE33): 700 nM
inhibition of growth at 10 µM (T47D): -4.02%
inhibition of growth at 10 µM (BT-549): -90.4%
inhibition of growth at 10 µM (MDA-MB-231): -85.1%
inhibition of growth at 10 µM [7]: -35.9%
inhibition of growth at 10 µM (MCF7): -23.1%
inhibition of growth at 10 µM (DU-145): -33.6%
inhibition of growth at 10 µM (UO-31): -18.2%
inhibition of growth at 10 µM (SN12C): -86.6%
inhibition of growth at 10 µM (CAKI-1): -5.76%
inhibition of growth at 10 µM (ACHN): 8.54%
inhibition of growth at 10 µM (786-0): -87.4%
inhibition of growth at 10 µM (SK-OV-3): 7.67%
inhibition of growth at 10 µM (OVCAR-5): 13.5%
IC50 (Hs 683 [8]): 500 nM
IC50 (cells): 440 nM
